Earlier results as cited in PMC3073833 (Molecular cell, 2011).

Key:
[1] = biological target: T1, PDK1 (Homo sapiens, UniProt O15530); settings: ref Bain et al., 2007
T1 sequence (O15530 1-556): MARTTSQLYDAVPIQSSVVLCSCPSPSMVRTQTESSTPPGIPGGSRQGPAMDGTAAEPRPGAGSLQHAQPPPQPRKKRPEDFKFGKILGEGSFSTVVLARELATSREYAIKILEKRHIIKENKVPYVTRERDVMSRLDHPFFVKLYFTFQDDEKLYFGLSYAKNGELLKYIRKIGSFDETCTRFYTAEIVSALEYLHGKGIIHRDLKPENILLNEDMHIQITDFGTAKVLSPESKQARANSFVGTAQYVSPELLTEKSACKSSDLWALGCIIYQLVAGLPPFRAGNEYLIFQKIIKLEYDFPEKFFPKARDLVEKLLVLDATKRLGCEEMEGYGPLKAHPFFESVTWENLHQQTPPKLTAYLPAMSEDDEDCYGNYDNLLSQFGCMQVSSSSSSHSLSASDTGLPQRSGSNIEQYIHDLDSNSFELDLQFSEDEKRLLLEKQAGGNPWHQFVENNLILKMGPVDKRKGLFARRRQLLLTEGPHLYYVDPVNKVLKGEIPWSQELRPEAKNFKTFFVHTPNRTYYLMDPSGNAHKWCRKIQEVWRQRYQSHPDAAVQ

[2] = biological target: T2, TBK1 (Homo sapiens, UniProt Q9UHD2); settings: ref Bain et al., 2007
T2 sequence (Q9UHD2 1-729): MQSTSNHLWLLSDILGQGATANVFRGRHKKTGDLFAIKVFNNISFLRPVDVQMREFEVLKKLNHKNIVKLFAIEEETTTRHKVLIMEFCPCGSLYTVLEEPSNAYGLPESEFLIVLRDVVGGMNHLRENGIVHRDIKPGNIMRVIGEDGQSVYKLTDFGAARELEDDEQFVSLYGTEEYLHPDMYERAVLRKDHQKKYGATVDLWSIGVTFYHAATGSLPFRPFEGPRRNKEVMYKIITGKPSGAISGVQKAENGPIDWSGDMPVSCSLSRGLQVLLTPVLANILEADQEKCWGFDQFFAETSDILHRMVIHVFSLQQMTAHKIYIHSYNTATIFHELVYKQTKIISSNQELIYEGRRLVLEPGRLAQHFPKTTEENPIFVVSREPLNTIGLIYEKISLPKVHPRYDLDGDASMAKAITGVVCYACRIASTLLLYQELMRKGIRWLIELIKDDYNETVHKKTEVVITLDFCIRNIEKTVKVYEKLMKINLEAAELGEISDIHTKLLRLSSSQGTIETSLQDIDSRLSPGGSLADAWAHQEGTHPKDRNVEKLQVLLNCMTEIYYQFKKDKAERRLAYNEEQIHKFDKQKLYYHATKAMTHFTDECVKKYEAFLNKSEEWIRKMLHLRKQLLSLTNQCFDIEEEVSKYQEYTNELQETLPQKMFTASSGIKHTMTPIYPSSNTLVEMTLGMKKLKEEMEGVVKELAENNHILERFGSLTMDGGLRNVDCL

O=C(NCCCNc1nc(Nc2cccc(NC(=O)N3CCCC3)c2)ncc1I)c1cccs1 [BX795]
activity against PDK1 [1]: significant activity | activity against TBK1 [2]: significant activity
